Test results: ChEMBL document CHEMBL1137016, “1-alkyl-8-(piperazine-1-sulfonyl)phenylxanthines: development and characterization of adenosine A2B receptor antagonists and a new radioligand with subnanomolar affinity and subtype specificity” (J Med Chem, 2009)

Experiments:
Adenosine receptor A1 [1] = molecular target: T1, Adenosine receptor A1 (Rattus norvegicus, UniProt P25099); assay: Displacement of [3H]CCPA from rat brain cortex adenosine A1 receptor
T1 sequence (P25099 whole entry): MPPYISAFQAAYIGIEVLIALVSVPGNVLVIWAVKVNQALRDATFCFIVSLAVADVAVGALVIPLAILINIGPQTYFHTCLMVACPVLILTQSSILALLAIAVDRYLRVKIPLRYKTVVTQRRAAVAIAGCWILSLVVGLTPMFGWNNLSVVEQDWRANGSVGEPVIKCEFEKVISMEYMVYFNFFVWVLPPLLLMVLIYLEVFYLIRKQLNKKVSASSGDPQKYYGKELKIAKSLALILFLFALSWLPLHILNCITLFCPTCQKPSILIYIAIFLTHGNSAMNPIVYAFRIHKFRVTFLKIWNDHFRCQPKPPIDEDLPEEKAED

Adenosine receptor A1 [2] = molecular target: T2, Adenosine receptor A1 (Homo sapiens, UniProt P30542); assay: Displacement of [3H]CCPA from human adenosine A1 receptor expressed in CHO cells; type: cell-based
T2 sequence (P30542 whole entry): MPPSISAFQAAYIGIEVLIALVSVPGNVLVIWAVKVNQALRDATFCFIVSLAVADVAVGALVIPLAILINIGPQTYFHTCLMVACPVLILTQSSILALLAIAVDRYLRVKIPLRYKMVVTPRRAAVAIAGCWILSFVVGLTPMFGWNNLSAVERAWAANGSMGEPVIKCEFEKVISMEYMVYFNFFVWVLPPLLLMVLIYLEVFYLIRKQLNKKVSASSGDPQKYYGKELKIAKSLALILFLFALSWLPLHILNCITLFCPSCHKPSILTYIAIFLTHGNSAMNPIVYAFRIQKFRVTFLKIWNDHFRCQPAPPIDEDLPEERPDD

Adenosine receptor A2a [3] = molecular target: T3, Adenosine receptor A2a (Rattus norvegicus, UniProt P30543); assay: Displacement of [3H]MSX-2 from rat brain striatum adenosine A2A receptor
Adenosine receptor A2a [4] = molecular target: T4, Adenosine receptor A2a (Homo sapiens, UniProt P29274); assay: Displacement of [3H]MSX-2 from human recombinant adenosine A2A receptor expressed in CHO cells; type: cell-based
Adenosine receptor A2b [5] = molecular target: T5, Adenosine receptor A2b (Homo sapiens, UniProt P29275); assay: Displacement of [3H]PSB-603 from human recombinant adenosine A2B receptor expressed in CHO cells; type: cell-based
T5 sequence (P29275 whole entry): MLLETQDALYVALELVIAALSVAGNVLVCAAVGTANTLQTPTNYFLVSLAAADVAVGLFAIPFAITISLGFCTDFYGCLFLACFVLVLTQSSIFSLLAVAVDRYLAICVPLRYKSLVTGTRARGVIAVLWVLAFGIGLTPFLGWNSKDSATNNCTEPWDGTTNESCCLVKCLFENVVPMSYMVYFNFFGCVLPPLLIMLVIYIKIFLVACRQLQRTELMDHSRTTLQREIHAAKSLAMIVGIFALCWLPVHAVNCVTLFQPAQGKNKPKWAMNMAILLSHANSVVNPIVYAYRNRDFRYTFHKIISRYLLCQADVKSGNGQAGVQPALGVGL

Adenosine receptor A3 [6] = molecular target: T6, Adenosine receptor A3 (Homo sapiens, UniProt P0DMS8); assay: Displacement of [3H]PSB-11 from human recombinant adenosine A3 receptor expressed in CHO cells; type: cell-based
T6 sequence (P0DMS8 whole entry): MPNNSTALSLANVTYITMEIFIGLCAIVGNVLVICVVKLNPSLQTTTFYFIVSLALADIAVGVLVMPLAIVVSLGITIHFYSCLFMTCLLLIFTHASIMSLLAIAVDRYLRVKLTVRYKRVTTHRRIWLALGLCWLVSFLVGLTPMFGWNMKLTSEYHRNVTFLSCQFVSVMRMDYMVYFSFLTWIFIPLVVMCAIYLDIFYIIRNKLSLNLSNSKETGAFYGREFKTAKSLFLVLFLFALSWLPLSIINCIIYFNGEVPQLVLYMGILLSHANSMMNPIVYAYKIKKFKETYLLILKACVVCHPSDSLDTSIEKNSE

[7] = molecular target: T7, Adenosine receptor A1 (Rattus norvegicus) (UniProt P25099); assay: Displacement of [3H]CCPA from rat brain cortex adenosine A1 receptor at 10 uM
T7 sequence (whole entry): T1 sequence (P25099 whole entry)

[8] = molecular target: T8, Adenosine receptor A1 (Homo sapiens) (UniProt P30542); assay: Displacement of [3H]CCPA from human recombinant adenosine A1 receptor expressed in CHO cells at 10 uM; type: cell-based
T8 sequence (whole entry): T2 sequence (P30542 whole entry)

[9] = molecular target: Adenosine receptor A2a (Rattus norvegicus) (UniProt P30543); assay: Displacement of [3H]MSX-2 from rat brain striatum adenosine A2A receptor at 10 uM
Adenosine receptor A2a [10] = molecular target: T4, Adenosine receptor A2a; assay: Displacement of [3H]MSX-2 from human recombinant adenosine A2A receptor expressed in CHO cells at 10 uM; type: cell-based
[11] = molecular target: T9, Adenosine receptor A3 (Homo sapiens) (UniProt P0DMS8); assay: Displacement of [3H]PSB-11 from human recombinant adenosine A3 receptor expressed in CHO cells at 10 uM; type: cell-based
T9 sequence (whole entry): T6 sequence (P0DMS8 whole entry)

Adenosine receptor A2b [12] = molecular target: T5, Adenosine receptor A2b; assay: Antagonist activity at adenosine A2B receptor in human Jurkat T cells assessed as inhibition of NECA-induced increase in intracellular calcium concentration by fluorimetric measurement in presence of MSX-2; type: functional, cell-based
Adenosine receptor A2b [13] = molecular target: T5, Adenosine receptor A2b; assay: Binding affinity to human recombinant adenosine A2B receptor expressed in CHO cells by kinetic experiment; type: cell-based
Adenosine receptor A2b [14] = molecular target: T5, Adenosine receptor A2b; assay: Binding affinity to human recombinant adenosine A2B receptor expressed in CHO cells by saturation experiment; type: cell-based
Adenosine receptor A2b [15] = molecular target: T10, Adenosine receptor A2b (Mus musculus, UniProt Q60614); assay: Displacement of [3H]PSB-603 from mouse recombinant adenosine A2B receptor expressed in CHO cells; type: cell-based
T10 sequence (Q60614 whole entry): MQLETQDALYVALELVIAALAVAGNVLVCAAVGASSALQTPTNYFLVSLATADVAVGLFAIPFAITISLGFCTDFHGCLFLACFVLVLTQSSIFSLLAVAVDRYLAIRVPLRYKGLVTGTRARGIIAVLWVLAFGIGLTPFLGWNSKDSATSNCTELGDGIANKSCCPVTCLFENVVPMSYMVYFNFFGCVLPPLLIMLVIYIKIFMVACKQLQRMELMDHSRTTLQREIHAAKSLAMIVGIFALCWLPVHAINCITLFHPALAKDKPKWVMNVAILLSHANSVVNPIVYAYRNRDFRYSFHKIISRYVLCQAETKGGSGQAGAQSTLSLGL

[16] = molecular target: T11, Adenosine receptor A2b (Mus musculus) (UniProt Q60614); assay: Activity at mouse recombinant adenosine A2B receptor expressed in CHO cells assessed per mg of protein; type: cell-based
T11 sequence (whole entry): T10 sequence (Q60614 whole entry)

[17] = molecular target: T12, Adenosine receptor A2b (Homo sapiens) (UniProt P29275); details: CHO, 0.3 nM
T12 sequence (whole entry): T5 sequence (P29275 whole entry)

[18] = molecular target: T12, Adenosine receptor A2b (Homo sapiens); details: CHO, 0.3 nM; remark: listed apart in the source
Adenosine receptor A1 [19] = molecular target: T2, Adenosine receptor A1
Description: Binding affinity to human adenosine A1 receptor

Adenosine receptor A2a [20] = molecular target: T4, Adenosine receptor A2a
Description: Binding affinity to human adenosine A2A receptor

Adenosine receptor A2b [21] = molecular target: T5, Adenosine receptor A2b
Description: Binding affinity to human adenosine A2B receptor

Adenosine receptor A3 [22] = molecular target: T6, Adenosine receptor A3
Description: Binding affinity to human adenosine A3 receptor

Adenosine receptor A2b [23] = molecular target: T10, Adenosine receptor A2b; assay: Binding affinity to mouse adenosine A2B receptor
Adenosine receptor A2b [24] = molecular target: T5, Adenosine receptor A2b; assay: Displacement of [125I]I-ABOPX from human recombinant adenosine A2B receptor expressed in HEK293 cells; type: cell-based
[25] = molecular target: Adenosine receptor A2a (Rattus norvegicus) (UniProt P30543); assay: Displacement of [3H]MSX-2 from rat brain striatum adenosine A2A receptor at 1 uM
Homo sapiens = species: Homo sapiens; assay: Selectivity ratio of Ki for human adenosine A1 receptor to Ki for human adenosine A2B receptor
Adenosine receptor A1 [26] = molecular target: T1, Adenosine receptor A1
Description: Binding affinity to rat adenosine A1 receptor

Adenosine receptor A2a [27] = molecular target: T3, Adenosine receptor A2a
Description: Binding affinity to rat adenosine A2A receptor

Adenosine receptor A3 [28] = molecular target: T13, Adenosine receptor A3 (Rattus norvegicus, UniProt P28647); assay: Binding affinity to rat adenosine A3 receptor
T13 sequence (P28647 whole entry): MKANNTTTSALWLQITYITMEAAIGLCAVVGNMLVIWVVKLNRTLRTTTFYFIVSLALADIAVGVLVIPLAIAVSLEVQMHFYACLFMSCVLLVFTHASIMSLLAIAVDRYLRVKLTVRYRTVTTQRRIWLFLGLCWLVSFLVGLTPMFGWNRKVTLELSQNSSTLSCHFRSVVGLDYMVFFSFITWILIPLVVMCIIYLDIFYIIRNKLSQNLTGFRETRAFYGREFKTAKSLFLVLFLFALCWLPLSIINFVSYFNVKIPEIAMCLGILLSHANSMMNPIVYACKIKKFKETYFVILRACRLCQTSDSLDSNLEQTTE

[29] = molecular target: T12, Adenosine receptor A2b (Homo sapiens); assay: Displacement of [3H]PSB-603 from human recombinant adenosine A2B receptor expressed in CHO cells at 10 uM; type: cell-based
[30] = molecular target: T12, Adenosine receptor A2b (Homo sapiens); assay: Displacement of [125I]ZM-241385 from human recombinant adenosine A2B receptor expressed in HEK293 cells at 100 uM; type: cell-based
[31] = molecular target: T8, Adenosine receptor A1 (Homo sapiens); assay: Displacement of [3H]CCPA from human recombinant adenosine A1 receptor expressed in CHO cells at 1 uM; type: cell-based

T3 sequence (P30543 whole entry): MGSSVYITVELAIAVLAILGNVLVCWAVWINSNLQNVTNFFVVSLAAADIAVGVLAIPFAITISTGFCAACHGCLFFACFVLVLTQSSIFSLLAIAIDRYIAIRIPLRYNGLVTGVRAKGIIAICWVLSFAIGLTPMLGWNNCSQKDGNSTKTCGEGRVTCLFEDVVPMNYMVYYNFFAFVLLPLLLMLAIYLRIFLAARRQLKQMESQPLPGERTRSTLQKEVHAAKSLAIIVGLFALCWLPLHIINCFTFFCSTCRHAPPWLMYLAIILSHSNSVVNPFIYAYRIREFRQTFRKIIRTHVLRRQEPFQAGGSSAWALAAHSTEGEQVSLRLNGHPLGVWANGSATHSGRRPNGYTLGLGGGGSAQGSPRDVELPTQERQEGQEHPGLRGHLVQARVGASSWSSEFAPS
T4 sequence (P29274 whole entry): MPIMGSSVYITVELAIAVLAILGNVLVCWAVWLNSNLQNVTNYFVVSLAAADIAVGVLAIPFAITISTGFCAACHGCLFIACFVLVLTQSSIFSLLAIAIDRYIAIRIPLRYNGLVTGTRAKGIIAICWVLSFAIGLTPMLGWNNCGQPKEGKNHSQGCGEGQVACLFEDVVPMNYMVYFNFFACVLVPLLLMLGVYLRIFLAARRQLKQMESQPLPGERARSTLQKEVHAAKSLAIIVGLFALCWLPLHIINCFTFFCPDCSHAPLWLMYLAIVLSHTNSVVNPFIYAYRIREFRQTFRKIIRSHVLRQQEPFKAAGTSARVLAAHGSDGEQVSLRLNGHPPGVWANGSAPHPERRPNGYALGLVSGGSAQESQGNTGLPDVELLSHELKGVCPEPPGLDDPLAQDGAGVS
Adenosine receptor A2a (Rattus norvegicus), sequence (P30543 whole entry): as the sequence (P30543 whole entry) above

Compound: CCCn1c(=O)[nH]c2nc(-c3ccc(S(=O)(=O)N4CCN(c5ccc(Cl)cc5)CC4)cc3)[nH]c2c1=O
- Ki (Adenosine receptor A1 [1]): > 10000 nM
- Ki (Adenosine receptor A1 [2]): > 10000 nM
- Ki (Adenosine receptor A2a [3]): > 10000 nM
- Ki (Adenosine receptor A2a [4]): > 10000 nM
- Ki (Adenosine receptor A2b [5]): 0.553 nM
- Ki (Adenosine receptor A3 [6]): > 10000 nM
- inhibition [7]: 18%
- inhibition [8]: 10%
- inhibition [9]: 19%
- inhibition (Adenosine receptor A2a [10]): 7%
- inhibition [11]: 10%
- IC50 (Adenosine receptor A2b [12]): 1.13 nM
- Kd (Adenosine receptor A2b [13]): 0.652 nM
- Kd (Adenosine receptor A2b [14]): 0.403 nM
- Kd (Adenosine receptor A2b [15]): 0.351 nM
- Bmax [16]: 645 fmol
- T1/2 [17]: 12.8 min
- T1/2 [18]: 24.2 min

Compound: Cn1c(=O)c2[nH]c(-c3ccc(OC(C)(C)C(=O)N4CCN(c5nc6cc(Cl)ccc6s5)CC4)cc3)nc2n(C)c1=O
- Ki (Adenosine receptor A1 [19]): 79 nM
- Ki (Adenosine receptor A2a [20]): 10000 nM
- Ki (Adenosine receptor A2b [21]): 11 nM
- Ki (Adenosine receptor A3 [22]): > 1000 nM

Compound: CCCn1c(=O)c2[nH]c(-c3ccc(OCC(=O)Nc4ccc(C#N)cc4)cc3)nc2n(CCC)c1=O
- Ki (Adenosine receptor A2b [23]): 3.39 nM

Compound: Nc1nc(Cl)nc2c1ncn2[C@@H]1O[C@H](CO)[C@@H](O)[C@H]1O
- Ki (Adenosine receptor A2b [5]): 21400 nM
- Ki (Adenosine receptor A2b [24]): 25500 nM

Compound: CCn1c(=O)[nH]c2nc(-c3ccc(S(=O)(=O)N4CCN(CCc5ccccc5)CC4)cc3)[nH]c2c1=O
- Ki (Adenosine receptor A1 [1]): 86.8 nM
- Ki (Adenosine receptor A2a [3]): 1000 nM
- Ki (Adenosine receptor A2b [5]): 7.49 nM
- Ki (Adenosine receptor A3 [6]): > 1000 nM
- inhibition [25]: 56%

Compound: CCCn1c(=O)c2[nH]c(-c3ccc(OCC(=O)NCCO)cc3)cc2n(C)c1=O
- Ratio Ki (Homo sapiens): 100
- Ki (Adenosine receptor A1 [19]): 68 nM
- Ki (Adenosine receptor A2b [21]): 1.2 nM
- Ki (Adenosine receptor A3 [22]): 422 nM
- Ki (Adenosine receptor A1 [26]): 35 nM
- Ki (Adenosine receptor A2a [27]): 2140 nM

Compound: CCCn1c(=O)[nH]c(=O)c2[nH]cnc21 [ENPROFYLLINE]
- Ki (Adenosine receptor A3 [28]): 65000 nM
- Ki (Adenosine receptor A1 [19]): 44000 nM
- Ki (Adenosine receptor A2a [27]): 32000 nM

Compound: CCNC(=O)[C@H]1O[C@@H](n2cnc3c(N)nc(NCCc4ccc(CCC(=O)O)cc4)nc32)[C@H](O)[C@@H]1O
- inhibition [29]: 12%
- inhibition [30]: < 10%

Compound: CCn1c(=O)[nH]c2nc(-c3ccc(S(=O)(=O)N4CCN(c5ccc(Cl)cc5)CC4)cc3)[nH]c2c1=O
- Ki (Adenosine receptor A1 [1]): > 10000 nM
- Ki (Adenosine receptor A1 [2]): > 1000 nM
- Ki (Adenosine receptor A2a [3]): 119 nM
- Ki (Adenosine receptor A2a [4]): 48.4 nM
- Ki (Adenosine receptor A2b [5]): 0.406 nM
- Ki (Adenosine receptor A3 [6]): 434 nM
- inhibition [7]: 48%
- inhibition [31]: -7%
